Activity calls are given as the source filed them.
How the values were obtained:
[1] = molecular target: Intestinal-type alkaline phosphatase (Homo sapiens, UniProt P09923); experiment: activation of human intestinal alkaline phosphatase – biochemical, dose response (AID 488873); assay type: functional
[2] = molecular target: Intestinal-type alkaline phosphatase (Mus musculus, UniProt P24822); experiment: mouse intestinal alkaline phosphatase activators, dose response, biochemical, luminescence, uHTS hits (AID 488783); assay type: functional
[3] = molecular target: T1, Alkaline phosphatase, tissue-nonspecific isozyme (Homo sapiens, UniProt P05186); experiment: activation of tissue-nonspecific alkaline phosphatase – biochemical, TNAP isozyme, mouse IAP uHTS hits, selectivity assay for mouse IAP activator project, dose response (AID 488880); assay type: functional
T1 sequence (P05186 whole entry): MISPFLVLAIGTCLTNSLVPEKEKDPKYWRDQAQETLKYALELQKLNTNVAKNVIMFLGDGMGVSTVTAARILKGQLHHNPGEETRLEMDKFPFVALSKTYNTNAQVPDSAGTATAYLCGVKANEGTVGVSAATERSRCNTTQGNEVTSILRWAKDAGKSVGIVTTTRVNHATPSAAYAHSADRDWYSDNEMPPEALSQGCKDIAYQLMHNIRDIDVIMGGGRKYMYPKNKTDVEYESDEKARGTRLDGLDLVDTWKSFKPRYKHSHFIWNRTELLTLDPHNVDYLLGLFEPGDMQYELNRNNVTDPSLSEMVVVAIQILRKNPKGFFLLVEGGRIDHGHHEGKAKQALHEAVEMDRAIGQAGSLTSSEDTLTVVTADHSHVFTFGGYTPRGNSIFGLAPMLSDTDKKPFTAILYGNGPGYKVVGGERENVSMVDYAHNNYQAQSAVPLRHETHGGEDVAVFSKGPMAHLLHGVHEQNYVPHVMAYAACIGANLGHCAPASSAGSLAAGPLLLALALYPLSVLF

[4] = molecular target: Peroxisome proliferator-activated receptor gamma (Homo sapiens, UniProt P37231); experiment: PPARg transcriptional activation, reporter cells – cell-based, luminescence, assay provider, dose response (AID 504447); assay type: functional
[5] = molecular target: T2, Sentrin-specific protease 1 (Homo sapiens, UniProt Q9P0U3); experiment: SENP1 catalytic domain blockers, concentration series – biochemical, kinetic FRET, dose response (AID 651697); assay type: functional; conditions: read-out: IC50_Mean
T2 sequence (Q9P0U3 whole entry): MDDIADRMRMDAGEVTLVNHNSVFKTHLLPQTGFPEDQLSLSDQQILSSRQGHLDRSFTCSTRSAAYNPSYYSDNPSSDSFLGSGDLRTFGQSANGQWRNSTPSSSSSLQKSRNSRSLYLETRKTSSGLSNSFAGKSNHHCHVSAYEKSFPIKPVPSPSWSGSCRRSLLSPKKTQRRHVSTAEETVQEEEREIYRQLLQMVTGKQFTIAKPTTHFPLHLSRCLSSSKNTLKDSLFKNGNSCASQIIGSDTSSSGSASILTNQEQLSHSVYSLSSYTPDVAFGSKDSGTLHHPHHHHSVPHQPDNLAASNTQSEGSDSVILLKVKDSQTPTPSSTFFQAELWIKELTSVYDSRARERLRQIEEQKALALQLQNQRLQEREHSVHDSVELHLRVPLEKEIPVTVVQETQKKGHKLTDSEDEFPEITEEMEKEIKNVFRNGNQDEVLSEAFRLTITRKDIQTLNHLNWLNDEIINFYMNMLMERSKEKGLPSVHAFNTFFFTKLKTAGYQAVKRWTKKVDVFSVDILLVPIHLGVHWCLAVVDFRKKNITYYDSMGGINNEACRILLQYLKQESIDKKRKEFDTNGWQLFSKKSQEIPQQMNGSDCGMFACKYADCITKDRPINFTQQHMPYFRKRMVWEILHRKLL

[6] = molecular target: T2, Sentrin-specific protease 1; experiment: Dose response confirmation of small molecule inhibitors of the catalytic domain of the SUMO protease, SENP1 in a FRET assay.; assay type: functional; conditions: read-out: IC50_Mean
[7] = HEK-293T viability loss after treatment – luminescence, T-cell screen hits, cytotoxicity control for TCR NF-kB inhibitor project, dose response (AID 489026); assay type: functional, cell-based;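 further: cells exposed to compound about 14 hours before the viability readout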
[8] = viability loss in THP-1 monocytes – THP-1 cells, cytotoxicity control for Vif-APOBEC3G degradation inhibitor project, dose response (AID 1117359); assay type: functional; conditions: THP-1
[9] = molecular target: T3, G-protein coupled receptor 35 (Homo sapiens, UniProt Q9HC97); experiment: SAR Analysis for the identification of Selective Antagonists of ERK1/2 Activity in GPR35-Overexpressing U2OS Cells. [Related pubchem assays: 2079, 2058 ]; assay type: functional, cell-based
[10] = molecular target: T4, Tyrosine-protein phosphatase non-receptor type 12 (Homo sapiens, UniProt Q05209); experiment: SAR Selectivity Analysis of small molecule inhibitors of PEST using pCAP in a fluorescence assay. [Related pubchem assays (depositor defined):AID1779, AID1784, AID2135]; assay type: functional
T4 sequence (Q05209 whole entry): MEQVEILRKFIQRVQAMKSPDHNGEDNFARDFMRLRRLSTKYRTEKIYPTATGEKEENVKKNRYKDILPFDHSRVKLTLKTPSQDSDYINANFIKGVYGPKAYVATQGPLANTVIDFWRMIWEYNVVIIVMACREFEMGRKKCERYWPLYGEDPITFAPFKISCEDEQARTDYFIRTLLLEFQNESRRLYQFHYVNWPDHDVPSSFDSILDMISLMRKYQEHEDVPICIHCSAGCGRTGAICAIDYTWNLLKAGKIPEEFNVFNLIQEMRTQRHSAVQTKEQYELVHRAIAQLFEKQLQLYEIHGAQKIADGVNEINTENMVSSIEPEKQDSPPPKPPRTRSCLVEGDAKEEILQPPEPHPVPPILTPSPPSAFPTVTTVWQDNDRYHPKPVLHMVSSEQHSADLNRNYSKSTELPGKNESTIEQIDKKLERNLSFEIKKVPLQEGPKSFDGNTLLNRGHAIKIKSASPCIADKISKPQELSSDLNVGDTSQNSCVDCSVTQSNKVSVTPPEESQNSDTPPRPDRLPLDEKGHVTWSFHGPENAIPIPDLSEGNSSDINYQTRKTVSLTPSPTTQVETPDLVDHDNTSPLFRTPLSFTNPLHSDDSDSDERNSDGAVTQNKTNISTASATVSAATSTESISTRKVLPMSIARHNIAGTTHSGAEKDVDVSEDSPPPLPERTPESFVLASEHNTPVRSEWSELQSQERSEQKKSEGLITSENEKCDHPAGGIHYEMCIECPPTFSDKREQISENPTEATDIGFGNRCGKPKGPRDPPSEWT

[11] = molecular target: T5, Tyrosine-protein phosphatase non-receptor type 22 (Homo sapiens, UniProt Q9Y2R2); experiment: SAR LYP1 Fluorescent Assay using OMFP substrate for In Vitro dose response studies - Set 3. [Related pubchem assays (depositor defined):AID1779, AID1784, AID2140, AID2686]; assay type: functional
T5 sequence (Q9Y2R2 whole entry): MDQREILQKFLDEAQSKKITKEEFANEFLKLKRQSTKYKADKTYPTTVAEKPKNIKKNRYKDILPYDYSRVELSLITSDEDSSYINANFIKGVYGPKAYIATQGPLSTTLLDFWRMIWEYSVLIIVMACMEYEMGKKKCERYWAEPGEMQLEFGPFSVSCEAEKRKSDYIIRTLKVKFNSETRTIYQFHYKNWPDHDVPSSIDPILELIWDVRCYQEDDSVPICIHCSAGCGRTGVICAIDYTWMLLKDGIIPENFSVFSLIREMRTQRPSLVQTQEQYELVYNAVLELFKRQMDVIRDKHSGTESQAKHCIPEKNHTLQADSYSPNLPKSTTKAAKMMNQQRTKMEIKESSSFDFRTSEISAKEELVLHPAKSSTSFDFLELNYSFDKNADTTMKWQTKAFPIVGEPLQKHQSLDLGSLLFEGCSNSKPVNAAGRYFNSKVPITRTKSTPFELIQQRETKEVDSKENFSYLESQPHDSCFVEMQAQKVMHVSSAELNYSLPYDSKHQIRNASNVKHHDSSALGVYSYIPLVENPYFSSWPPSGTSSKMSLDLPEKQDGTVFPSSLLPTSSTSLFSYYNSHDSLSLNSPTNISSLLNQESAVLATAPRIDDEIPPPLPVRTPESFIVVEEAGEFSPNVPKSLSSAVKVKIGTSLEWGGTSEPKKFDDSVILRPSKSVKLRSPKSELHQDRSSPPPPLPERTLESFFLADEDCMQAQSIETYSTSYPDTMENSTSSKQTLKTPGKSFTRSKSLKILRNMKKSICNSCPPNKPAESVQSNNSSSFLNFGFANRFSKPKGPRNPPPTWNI

[12] = molecular target: T6, Tyrosine-protein phosphatase non-receptor type 7 (Homo sapiens, UniProt P35236); experiment: inhibition of hematopoietic tyrosine phosphatase HePTP – biochemical, set 2, SAR follow-up (AID 449736); assay type: functional
T6 sequence (P35236 whole entry): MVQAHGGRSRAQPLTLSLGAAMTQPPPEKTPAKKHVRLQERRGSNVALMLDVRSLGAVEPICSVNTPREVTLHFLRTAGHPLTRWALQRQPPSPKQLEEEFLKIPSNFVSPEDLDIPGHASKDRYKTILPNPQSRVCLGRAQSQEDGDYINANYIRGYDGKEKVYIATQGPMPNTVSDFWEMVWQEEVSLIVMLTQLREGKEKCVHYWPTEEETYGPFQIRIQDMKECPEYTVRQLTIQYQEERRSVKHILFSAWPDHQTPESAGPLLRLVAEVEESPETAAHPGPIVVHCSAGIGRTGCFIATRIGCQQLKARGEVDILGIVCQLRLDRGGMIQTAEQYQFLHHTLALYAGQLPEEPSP

[13] = molecular target: T5, Tyrosine-protein phosphatase non-receptor type 22; experiment: inhibition of lymphoid tyrosine phosphatase LYP – biochemical, pCAP fluorogenic substrate, fluorescence, set 3, SAR follow-up (AID 449727); assay type: functional
[14] = molecular target: T7, G-protein coupled receptor 55 (Homo sapiens, UniProt Q9Y2T6); experiment: blockers of GPR55 signalling, imaged – imaging, image-based, counter-screen for GPR35 antagonist project, SAR follow-up (AID 2397); assay type: functional
[15] = molecular target: SUMO E1/E2 (Homo sapiens, UniProt P63279+Q9UBE0+Q9UBT2); experiment: SAR analysis of SUMOylation using HTRF in an in-Vitro dose response assay. [Related pubchem assays (depositor defined):AID2006, AID2011, AID2018, AID2069, AID2658]; assay type: functional
[16] = molecular target: T3, G-protein coupled receptor 35; experiment: SAR analysis of Agonists of the GPR35 Receptor using an Image-Based Assay - Set 4. [Related pubchem assays (depositor defined):AID2013, AID2026]; assay type: functional
[17] = molecular target: T8, Cannabinoid receptor 1 (Homo sapiens, UniProt P21554); experiment: SAR analysis of agonists of the Cannabinoid Receptor 1 using an Image-Based Assay - Set 4. [Related pubchem assays (depositor defined):AID2013, AID2026]; assay type: functional
[18] = molecular target: T3, G-protein coupled receptor 35; experiment: SAR analysis of Antagonists of the GPR35 Receptor using an Image-Based Assay - Set 6. [Related pubchem assays (depositor defined):AID2013, AID2026]; assay type: functional
[19] = molecular target: T8, Cannabinoid receptor 1; experiment: SAR analysis of antagonists of the Cannabinoid Receptor 1 using an Image-Based Assay - Set 4. [Related pubchem assays (depositor defined):AID2013, AID2026]; assay type: functional
[20] = molecular target: T7, G-protein coupled receptor 55; experiment: SAR Analysis of Selective Antagonists of GPR55 using an Image-Based Assay - Set 4. [Related pubchem assays (depositor defined):AID2013, AID2026]; assay type: functional
[21] = molecular target: T9, Cannabinoid receptor 2 (Homo sapiens, UniProt P34972); experiment: SAR analysis of antagonists of the Cannabinoid Receptor 2 using an Image-Based Assay - Set 3. [Related pubchem assays (depositor defined):AID2013, AID2026]; assay type: functional
[22] = molecular target: T9, Cannabinoid receptor 2; experiment: SAR analysis of agonists of the Cannabinoid Receptor 2 using an Image-Based Assay - Set 3. [Related pubchem assays (depositor defined):AID2013, AID2026]; assay type: functional
[23] = molecular target: Exodeoxyribonuclease V (Escherichia coli (strain K12), UniProt P04993+P07648+P08394); experiment: RecBCD inhibition via phage-restricted bacterial growth – absorbance, V66 E. coli, mutant T4 phage, counter-screen for AddAB inhibitor project, dose response (AID 492957); assay type: functional, cell-based, Escherichia coli str. K-12 substr. MG1655
[24] = molecular target: Nonstructural protein 1 (Influenza A virus, UniProt Q194T2); assay type: functional, Influenza A virus (A/California/07/2009(H1N1))
[25] = Counterscreen for AddAB inhibitors: absorbance-based bacterial cell-based high throughput dose response assay for inhibitors of bacterial viability. [Related pubchem assays (depositor defined):AID435030, AID449728, AID449731, AID488942, AID488955, AID488956]; assay type: functional
[26] = test system: INS1; experiment: INS-1E survival protection against cytokine death – cell-based, luminescence, retest, dose response (AID 449756); assay type: functional; conditions: Rattus norvegicus, INS1;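 further: cell death triggered by IL-1 beta plus TNF-alpha plus IFN-gamma mixture; protective hits raise ATP signal compared with cytokine alone wells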

T3 sequence (Q9HC97 whole entry): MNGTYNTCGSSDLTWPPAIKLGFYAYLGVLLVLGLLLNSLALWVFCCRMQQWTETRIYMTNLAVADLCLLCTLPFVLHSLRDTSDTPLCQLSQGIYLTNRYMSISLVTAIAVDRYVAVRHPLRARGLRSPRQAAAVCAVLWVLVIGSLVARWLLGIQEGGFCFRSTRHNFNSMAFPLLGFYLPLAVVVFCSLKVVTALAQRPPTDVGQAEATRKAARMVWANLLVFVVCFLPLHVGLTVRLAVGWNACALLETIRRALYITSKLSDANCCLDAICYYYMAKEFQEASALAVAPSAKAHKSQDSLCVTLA
T9 sequence (P34972 whole entry): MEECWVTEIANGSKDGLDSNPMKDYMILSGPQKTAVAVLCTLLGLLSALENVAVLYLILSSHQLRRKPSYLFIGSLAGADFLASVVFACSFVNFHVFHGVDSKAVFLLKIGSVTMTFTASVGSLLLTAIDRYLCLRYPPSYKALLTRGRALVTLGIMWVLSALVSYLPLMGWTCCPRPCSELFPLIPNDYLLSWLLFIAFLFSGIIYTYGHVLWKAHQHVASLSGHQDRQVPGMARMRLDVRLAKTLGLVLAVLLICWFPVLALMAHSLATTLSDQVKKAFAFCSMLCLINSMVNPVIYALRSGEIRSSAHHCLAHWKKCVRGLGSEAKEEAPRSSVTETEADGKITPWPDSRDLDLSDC
T7 sequence (Q9Y2T6 whole entry): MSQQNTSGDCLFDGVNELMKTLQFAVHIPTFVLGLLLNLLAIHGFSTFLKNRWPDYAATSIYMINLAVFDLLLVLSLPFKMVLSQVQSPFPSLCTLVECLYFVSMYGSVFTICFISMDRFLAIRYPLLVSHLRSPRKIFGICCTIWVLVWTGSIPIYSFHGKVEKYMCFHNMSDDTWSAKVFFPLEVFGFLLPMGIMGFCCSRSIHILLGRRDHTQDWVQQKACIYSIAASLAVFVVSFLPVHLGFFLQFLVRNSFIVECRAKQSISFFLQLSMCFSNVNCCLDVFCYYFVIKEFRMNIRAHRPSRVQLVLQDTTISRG
T8 sequence (P21554 whole entry): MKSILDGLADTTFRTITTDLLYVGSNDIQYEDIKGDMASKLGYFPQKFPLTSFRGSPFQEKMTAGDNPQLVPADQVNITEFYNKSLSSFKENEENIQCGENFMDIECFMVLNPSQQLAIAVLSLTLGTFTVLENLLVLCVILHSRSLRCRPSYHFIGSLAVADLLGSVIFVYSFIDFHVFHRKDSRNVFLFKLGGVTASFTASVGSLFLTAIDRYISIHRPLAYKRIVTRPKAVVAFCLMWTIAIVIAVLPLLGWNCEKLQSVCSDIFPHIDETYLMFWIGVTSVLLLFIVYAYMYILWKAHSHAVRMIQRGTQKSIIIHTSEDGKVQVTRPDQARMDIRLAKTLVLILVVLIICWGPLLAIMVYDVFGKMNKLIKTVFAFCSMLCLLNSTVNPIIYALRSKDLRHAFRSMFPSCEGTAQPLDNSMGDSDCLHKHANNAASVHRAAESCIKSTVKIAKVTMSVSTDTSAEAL
Sequence of Peroxisome proliferator-activated receptor gamma (P37231 whole entry, the tested form may be a part): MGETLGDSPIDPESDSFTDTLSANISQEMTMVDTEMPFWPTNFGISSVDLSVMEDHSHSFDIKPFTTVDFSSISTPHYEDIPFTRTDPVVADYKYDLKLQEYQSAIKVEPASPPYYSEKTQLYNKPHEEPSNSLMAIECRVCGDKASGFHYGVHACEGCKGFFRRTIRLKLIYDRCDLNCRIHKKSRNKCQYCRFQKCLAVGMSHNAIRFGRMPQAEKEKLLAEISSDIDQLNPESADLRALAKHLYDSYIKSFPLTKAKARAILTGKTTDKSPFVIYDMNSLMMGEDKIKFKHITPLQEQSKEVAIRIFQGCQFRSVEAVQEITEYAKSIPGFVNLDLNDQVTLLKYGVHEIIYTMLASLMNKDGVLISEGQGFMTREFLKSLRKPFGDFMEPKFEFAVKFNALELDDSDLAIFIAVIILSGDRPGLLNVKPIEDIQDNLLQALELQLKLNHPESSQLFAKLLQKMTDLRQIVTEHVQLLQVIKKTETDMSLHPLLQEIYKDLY
Sequence of Intestinal-type alkaline phosphatase (Mus musculus, UniProt P24822) (P24822 whole entry): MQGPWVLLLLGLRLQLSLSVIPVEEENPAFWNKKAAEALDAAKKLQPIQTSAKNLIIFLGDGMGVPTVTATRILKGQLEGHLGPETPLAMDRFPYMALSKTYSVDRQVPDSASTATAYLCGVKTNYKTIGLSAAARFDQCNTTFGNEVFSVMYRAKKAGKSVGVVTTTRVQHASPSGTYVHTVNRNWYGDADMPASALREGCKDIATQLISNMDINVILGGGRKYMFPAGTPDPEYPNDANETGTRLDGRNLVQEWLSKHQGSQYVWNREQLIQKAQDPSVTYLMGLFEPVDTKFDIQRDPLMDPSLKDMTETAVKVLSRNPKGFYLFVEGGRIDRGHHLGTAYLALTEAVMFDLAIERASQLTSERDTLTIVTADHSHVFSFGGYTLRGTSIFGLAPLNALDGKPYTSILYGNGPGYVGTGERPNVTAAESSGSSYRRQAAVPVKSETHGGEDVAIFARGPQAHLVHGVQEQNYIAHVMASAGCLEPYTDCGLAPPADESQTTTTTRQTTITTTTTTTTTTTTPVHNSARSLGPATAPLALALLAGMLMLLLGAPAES
Sequence of SUMO E1/E2 (Q9UBE0 whole entry): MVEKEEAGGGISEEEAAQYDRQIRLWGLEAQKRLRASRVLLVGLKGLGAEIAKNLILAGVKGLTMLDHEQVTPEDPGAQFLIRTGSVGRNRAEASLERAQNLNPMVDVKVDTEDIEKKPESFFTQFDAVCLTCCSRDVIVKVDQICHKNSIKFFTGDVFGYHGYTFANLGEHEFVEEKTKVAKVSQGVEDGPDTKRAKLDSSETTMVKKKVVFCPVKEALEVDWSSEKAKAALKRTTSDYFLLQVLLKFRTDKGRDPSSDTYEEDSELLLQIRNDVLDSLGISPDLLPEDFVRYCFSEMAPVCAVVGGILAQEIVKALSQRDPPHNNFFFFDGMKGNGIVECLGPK
Sequence of SUMO E1/E2 (Q9UBT2 whole entry): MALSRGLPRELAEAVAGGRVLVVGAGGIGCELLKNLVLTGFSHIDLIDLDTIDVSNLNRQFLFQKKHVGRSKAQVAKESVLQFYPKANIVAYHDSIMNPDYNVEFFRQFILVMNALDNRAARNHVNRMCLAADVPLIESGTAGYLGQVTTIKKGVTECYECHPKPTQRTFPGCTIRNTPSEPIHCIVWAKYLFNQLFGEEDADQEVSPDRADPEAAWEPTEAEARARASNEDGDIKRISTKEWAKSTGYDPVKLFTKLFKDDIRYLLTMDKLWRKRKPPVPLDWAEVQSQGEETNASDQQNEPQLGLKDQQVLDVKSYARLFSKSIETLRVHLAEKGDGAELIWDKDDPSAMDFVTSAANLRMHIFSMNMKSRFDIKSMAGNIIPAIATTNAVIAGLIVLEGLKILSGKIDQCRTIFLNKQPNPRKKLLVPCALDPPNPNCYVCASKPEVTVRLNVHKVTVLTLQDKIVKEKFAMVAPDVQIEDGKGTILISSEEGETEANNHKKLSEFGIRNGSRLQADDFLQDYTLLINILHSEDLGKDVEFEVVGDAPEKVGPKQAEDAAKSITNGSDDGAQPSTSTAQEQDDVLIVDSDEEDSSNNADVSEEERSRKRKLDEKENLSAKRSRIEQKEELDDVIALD
Sequence of SUMO E1/E2 (P63279 whole entry): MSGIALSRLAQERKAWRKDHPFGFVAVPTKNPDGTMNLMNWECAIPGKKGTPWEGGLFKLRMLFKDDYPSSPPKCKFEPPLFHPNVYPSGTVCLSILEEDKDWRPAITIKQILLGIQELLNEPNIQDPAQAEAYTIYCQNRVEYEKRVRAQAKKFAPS
Sequence of Nonstructural protein 1 (Q194T2 whole entry): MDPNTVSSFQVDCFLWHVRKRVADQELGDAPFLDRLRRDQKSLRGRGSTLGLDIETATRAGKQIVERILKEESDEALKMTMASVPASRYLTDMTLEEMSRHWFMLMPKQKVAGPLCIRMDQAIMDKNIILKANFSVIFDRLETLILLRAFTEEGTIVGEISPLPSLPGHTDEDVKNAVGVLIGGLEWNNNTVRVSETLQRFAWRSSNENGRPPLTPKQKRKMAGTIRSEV
Sequence of Intestinal-type alkaline phosphatase (Homo sapiens, UniProt P09923) (P09923 whole entry): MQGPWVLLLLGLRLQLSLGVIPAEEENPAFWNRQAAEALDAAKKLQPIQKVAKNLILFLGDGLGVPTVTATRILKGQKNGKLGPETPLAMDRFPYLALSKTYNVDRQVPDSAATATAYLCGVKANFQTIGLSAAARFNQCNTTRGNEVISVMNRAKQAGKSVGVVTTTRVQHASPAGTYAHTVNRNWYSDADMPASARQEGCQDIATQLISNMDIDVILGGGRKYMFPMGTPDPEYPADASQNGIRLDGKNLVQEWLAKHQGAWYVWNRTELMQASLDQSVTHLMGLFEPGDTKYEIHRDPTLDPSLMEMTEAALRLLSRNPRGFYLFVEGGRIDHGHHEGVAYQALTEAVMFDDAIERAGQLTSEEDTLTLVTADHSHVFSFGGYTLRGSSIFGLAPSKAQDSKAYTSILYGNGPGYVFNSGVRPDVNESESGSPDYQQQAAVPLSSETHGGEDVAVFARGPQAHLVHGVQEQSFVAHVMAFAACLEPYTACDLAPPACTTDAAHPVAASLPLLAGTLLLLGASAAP

## Cc1ccc(NC(=O)CN(C)S(=O)(=O)c2ccc3[nH]c(=O)oc3c2)c(C)c1
[1]
  EC50: 61.3 µM (active)
[2]
  EC50: 57.9 µM (active)
[3]
  EC50: 73.1 µM (active)

## COc1ccccc1-n1cc(C(=O)c2cc(Cl)ccc2O)cc(C#N)c1=O
[4]
  EC50: 2.4 µM (active)
[5]
  IC50: 40.9 µM (inactive)
[6]
  IC50: 25.5 µM (inactive)

## CC1CC(C)CN(S(=O)(=O)c2ccc(NC(=O)c3ccc(O)nc3)cc2)C1 (stereo unspecified)
[7]
  IC50: > 80 µM (inactive)
[8]
  CC50: 19.7 µM (active)

## COc1ccc(/C=C2\SC(=S)N(CCCC(=O)Nc3ccc(C(=O)O)c(O)c3)C2=O)cc1OC
[9]
  IC50: 0.522 µM (active)
[10]
  IC50: 17.9 µM (active)
[11]
  IC50: > 100 µM (inactive)
[12]
  IC50: 9.74 µM (active)
[13]
  IC50: 58.5 µM (active)
[14]
  IC50: > 32 µM (inactive)

## Cc1ccc(N=Cc2sccc2C)cc1C
[15]
  IC50: > 100 µM (inactive)

## COc1ccc(-c2c(-c3ccc(OCCN4CCOCC4)cc3O)n[nH]c2C)cc1
[16]
  EC50: > 32 µM (inactive)
[17]
  EC50: > 32 µM (inactive)
[18]
  IC50: > 32 µM (inactive)
[19]
  IC50: 3.78 µM (active)
[20]
  IC50: > 32 µM (inactive)
[21]
  IC50: 26.8 µM (inactive)
[22]
  EC50: > 32 µM (inactive)

## Nc1c(Cl)ncnc1N/N=C/c1ccc2ccccc2n1
[23]
  IC50: > 119 µM (inactive)
[24]
  IC50: 8.42 µM (active)
[25]
  IC50: > 119 µM (inactive)
[26]
  AC50: 0.825 µM (active)
